What was measured:
[1] = tested on: RKO colon adenocarcinoma cells (RKOp27) arrested by the expression of ectopic p27Kip1; test: Alamar Blue cell viability assay on RKOp27 cells arrested by p27Kip1 expression induced by Ponasterone A; type: cell-based; details: Homo sapiens, 72 hours incubation, 10 μM Ponasterone A, read-out: IC50 RKO p27 induced (arrested)
Description: To determine the cell cycle specific mode of action, subclones of RKO colon adenocarcinoma cells (RKOp27 or RKOp21 as described by Schmidt et al. in Oncogene 19, 2423-2429; 2000) are seeded into 96 well flat bottom plates at a density of 15000 cells per well in a volume of 50 μl per well in DMEM growth medium with 10% FCS containing 10 μM Ponasterone A. 24 hours after seeding the 50 μl each of the compound dilutions in DMEM medium are added into each well of the 96 Well plate. Each compound dilution is tested as quadruplicates. Wells containing untreated control cells are filled with 50 μl DMEM medium containing 1% DMSO. The cells are then incubated with the substances for 72 hours at 37° C. in a humidified atmosphere containing 5% carbon dioxide. To determine the viability of the cells, 10 μl of an Alamar Blue solution (Biosource) are added and the fluorescence was measured at an extinction of 544 nm and an emission of 590 nm. For the calculation of the cell viability the emission value from untreated cells is set as 100% viability and the emission rates of treated cells are set in relation to the values of untreated cells. Viabilities are expressed as % values. Viability is compared of proliferating cells grown in the absence of the inducer Ponasterone A, versus viability of cells arrested by the expression of ectopic p27Kip1 induced by Ponasterone A.

[2] = tested on: RKO (RKOp27) human colon adenocarcinoma cells; test: Alamar Blue cell viability assay, anti-proliferative/cytotoxic activity on proliferating (uninduced) RKOp27 cells; type: cell-based; details: 72 hours incubation, absence of the inducer Ponasterone A, read-out: IC50 RKO p27 uninduced (proliferating)
Description: The anti-proliferative/cytotoxic activity of the compounds described herein, can be tested on subclones of RKO (RKOp27) human colon adenocarcinoma cells (Schmidt et al., Oncogene 19, 2423-2429; 2000) using the Alamar Blue cell viability assay (described in O'Brien et al. Eur J Biochem 267, 5421-5426, 2000). The compounds are dissolved as 20 mM solutions in dimethylsulfoxide (DMSO) and subsequently diluted in semi-logarithmic steps. DMSO dilutions are further diluted 1:100 into Dulbecco's modified Eagle's medium (DMEM) containing 10% fetal calf serum to a final concentration twice as much as the final concentration in the test. RKO subclones are seeded into 96 well flat bottom plates at a density of 5000 cells per well in a volume of 50 μl per well. 24 hours after seeding the 50 μl each of the compound dilutions in DMEM medium are added into each well of the 96 Well plate. Each compound dilution is tested as quadruplicates. Wells containing untreated control cells are filled with 50 μl DMEM medium containing 1% DMSO. The cells are then incubated with the substances for 72 hours at 37° C. in a humified atmosphere containing 5% carbon dioxide. To determine the viability of the cells, 10 μl of an Alamar Blue solution (Biosource) are added and the fluorescence is measured at an extinction of 544 nm and an emission of 590 nm. For the calculation of the cell viability the emission value from untreated cells is set as 100% viability and the emission rates of treated cells are set in relation to the values of untreated cells. Viabilities are expressed as % values.
The corresponding IC50 values of the compounds for anti-proliferative/cytotoxic activity are determined from the concentration-effect curves.
Representative IC50 values for anti-proliferation/cytotoxicity determined in the mentioned assay follow from the following table A, in which the numbers of the compounds correspond to the numbers of the examples.

Compound | IC50 [1] | IC50 [2]
COc1ccc(C)cc1CCC(=O)Nc1sc2c(c1C#N)CCN(C(=O)CCn1ccnc1C)C2 [Example 110, N-{3-Cyano-6-[3-(2-methyl-imidazol-1-yl)-propanoyl]-4,5,6,7-tetrahydro-thieno[2,3-c]pyridin-2-yl}-3-(2-methoxy-5-methyl-phenyl)-propionamide] | ≥ 10000 nM | 300 to 2000 nM
COc1ccccc1CCC(=O)Nc1sc2c(c1C#N)CCN(C(=O)CCc1ccncc1)C2 [Example 122, N-[3-Cyano-6-(3-pyridin-4-yl-propanoyl)-4,5,6,7-tetrahydro-thieno[2,3-c]pyridin-2-yl]-3-(2-methoxy-phenyl)-propionamide] | > 100000 nM | ≤ 300 nM
COc1ccccc1C(C)CC(=O)Nc1sc2c(c1C#N)CCN(C(=O)Cn1ccnc1)C2 (racemic) [Example 82, (RS)—N-[3-Cyano-6-(2-Imidazol-1-yl-ethanoyl)-4,5,6,7-tetrahydro-thieno[2,3-c]pyridin-2-yl]-3-(2-methoxy-phenyl)-butyramide] | ≥ 40000 nM | 300 to 2000 nM
CCOc1ccccc1CCC(=O)Nc1sc2c(c1C#N)CCN(C(=O)COC)C2 [Example 19, N-[3-Cyano-6-(2-methoxy-ethanoyl)-4,5,6,7-tetrahydro-thieno[2,3-c]pyridin-2-yl]-3-(2-ethoxy-phenyl)-propionamide] | > 100000 nM | ≤ 300 nM
COc1cccc(CCC(=O)Nc2sc3c(c2C#N)CCN(C(=O)Cc2cccnc2)C3)c1 [Example 39, N-[3-Cyano-6-(2-pyridin-3-yl-ethanoyl)-4,5,6,7-tetrahydro-thieno[2,3-c]pyridin-2-yl]-3-(3-methoxy-phenyl)-propionamide] | ≥ 40000 nM | ≤ 300 nM
CCOc1ccccc1CCC(=O)Nc1sc2c(c1C#N)CCN(C(=O)CCc1ccccn1)C2 [Example 17, N-[3-Cyano-6-(3-pyridin-2-yl-propanoyl)-4,5,6,7-tetrahydro-thieno[2,3-c]pyridin-2-yl]-3-(2-ethoxy-phenyl)-propionamide] | ≥ 40000 nM | ≤ 300 nM
CCOc1ccccc1C(C)CC(=O)Nc1sc2c(c1C#N)CCN(C(=O)CCc1ccccn1)C2 (racemic) [Example 137, (RS)—N-[3-Cyano-6-(3-pyridin-2-yl-propanoyl)-4,5,6,7-tetrahydro-thieno[2,3-c]pyridin-2-yl]-3-(2-ethoxy-phenyl)-butyramide] | ≥ 10000 nM | ≤ 300 nM
CCOc1ccccc1CCC(=O)Nc1sc2c(c1C#N)CCN(C(=O)Cn1cc(C)nc1C)C2 [Example 148, N-{3-Cyano-6-[2-(2,4-dimethyl-imidazol-1-yl)-ethanoyl]-4,5,6,7-tetrahydro-thieno[2,3-c]pyridin-2-yl}-3-(2-ethoxy-phenyl)-propionamide] | ≥ 10000 nM | ≤ 300 nM
COc1ccccc1CCC(=O)Nc1sc2c(c1C#N)CCN(C(=O)Cn1cnc(C)c1)C2 [Example 139, N-{3-Cyano-6-[2-(4-methyl-imidazol-1-yl)-ethanoyl]-4,5,6,7-tetrahydro-thieno[2,3-c]pyridin-2-yl}-3-(2-methoxy-phenyl)-propionamide] | ≥ 40000 nM | ≤ 300 nM
CCOc1ccccc1C(C)CC(=O)Nc1sc2c(c1C#N)CCN(C(=O)CCc1cccnc1)C2 (racemic) [Example 78, (RS)—N-[3-Cyano-6-(3-pyridin-3-yl-propanoyl)-4,5,6,7-tetrahydro-thieno[2,3-c]pyridin-2-yl]-3-(2-ethoxy-phenyl)-butyramide] | ≥ 40000 nM | 300 to 2000 nM
CCOc1ccccc1CCC(=O)Nc1sc2c(c1C#N)CCN(C(=O)Cc1ccccn1)C2 [Example 26, N-[3-Cyano-6-(2-pyridin-2-yl-ethanoyl)-4,5,6,7-tetrahydro-thieno[2,3-c]pyridin-2-yl]-3-(2-ethoxy-phenyl)-propionamide] | ≥ 10000 nM | ≤ 300 nM
COc1cccc(CCC(=O)Nc2sc3c(c2C#N)CCN(C(=O)Cn2ccnc2C)C3)c1 [Example 129, N-{3-Cyano-6-[2-(2-methyl-imidazol-1-yl)-ethanoyl]-4,5,6,7-tetrahydro-thieno[2,3-c]pyridin-2-yl}-3-(3-methoxy-phenyl)-propionamide] | ≥ 40000 nM | 300 to 2000 nM
CCOc1ccccc1CCC(=O)Nc1sc2c(c1C#N)CCN(C(=O)Cc1cccnc1)C2 [Example 27, N-[3-Cyano-6-(2-pyridin-3-yl-ethanoyl)-4,5,6,7-tetrahydro-thieno[2,3-c]pyridin-2-yl]-3-(2-ethoxy-phenyl)-propionamide] | ≥ 40000 nM | ≤ 300 nM
COc1cccc(CCC(=O)Nc2sc3c(c2C#N)CCN(C(=O)CCc2ccccn2)C3)c1 [Example 16, N-[3-Cyano-6-(3-pyridin-2-yl-propanoyl)-4,5,6,7-tetrahydro-thieno[2,3-c]pyridin-2-yl]-3-(3-methoxy-phenyl)-propionamide] | > 100000 nM | 300 to 2000 nM
CCOc1ccccc1CCC(=O)Nc1sc2c(c1C#N)CCN(C(=O)COC(C)=O)C2 [Example 10, Acetic acid 2-{3-cyano-2-[3-(2-ethoxy-phenyl)-propanoylamino]-4,7-dihydro-5H-thieno[2,3-c]pyridin-6-yl}-2-oxo-ethyl ester] | > 100000 nM | ≤ 300 nM

The next lines start with results.

IC50 [1] | Compound | IC50 [2]
≥ 40000 nM | COc1ccccc1CCC(=O)Nc1sc2c(c1C#N)CCN(C(=O)Cc1ccccn1)C2 [Example 59, N-[3-Cyano-6-(2-pyridin-2-yl-ethanoyl)-4,5,6,7-tetrahydro-thieno[2,3-c]pyridin-2-yl]-3-(2-methoxy-phenyl)-propionamide] | ≤ 300 nM
≥ 10000 nM | CCOc1ccccc1C(C)CC(=O)Nc1sc2c(c1C#N)CCN(C(=O)CCc1ccncc1)C2 (racemic) [Example 121, (RS)—N-[3-Cyano-6-(3-pyridin-4-yl-propanoyl)-4,5,6,7-tetrahydro-thieno[2,3-c]pyridin-2-yl]-3-(2-ethoxy-phenyl)-butyramide] | 300 to 2000 nM
> 100000 nM | CCOc1ccccc1C(C)CC(=O)Nc1sc2c(c1C#N)CCN(C(=O)Cc1cccnc1)C2 (racemic) [Example 67, (RS)—N-[3-Cyano-6-(2-pyridin-3-yl-ethanoyl)-4,5,6,7-tetrahydro-thieno[2,3-c]pyridin-2-yl]-3-(2-ethoxy-phenyl)-butyramide] | ≤ 300 nM
> 100000 nM | COc1ccccc1C(C)CC(=O)Nc1sc2c(c1C#N)CCN(C(=O)Cc1cccnc1)C2 (racemic) [Example 66, (RS)—N-[3-Cyano-6-(2-pyridin-3-yl-ethanoyl)-4,5,6,7-tetrahydro-thieno[2,3-c]pyridin-2-yl]-3-(2-methoxy-phenyl)-butyramide] | ≤ 300 nM
> 100000 nM | COc1cccc(C(C)CC(=O)Nc2sc3c(c2C#N)CCN(C(=O)Cc2ccccn2)C3)c1 (stereo not shown) [Example 58, N-[3-Cyano-6-(2-pyridin-2-yl-ethanoyl)-4,5,6,7-tetrahydro-thieno[2,3-c]pyridin-2-yl]-3-(3-methoxy-phenyl)-butyramide] | 300 to 2000 nM
> 100000 nM | COc1cccc(CCC(=O)Nc2sc3c(c2C#N)CCN(C(=O)Cc2ccncc2)C3)c1 [Example 72, N-[3-Cyano-6-(2-pyridin-4-yl-ethanoyl)-4,5,6,7-tetrahydro-thieno[2,3-c]pyridin-2-yl]-3-(3-methoxy-phenyl)-propionamide] | ≤ 300 nM
≥ 10000 nM | CCOc1ccccc1CCC(=O)Nc1sc2c(c1C#N)CCN(C(=O)CCc1ccncc1)C2 [Example 123] | ≤ 300 nM
> 100000 nM | COc1ccc(C)cc1CCC(=O)Nc1sc2c(c1C#N)CCN(C(=O)CCc1cccnc1)C2 [Example 29, N-[3-Cyano-6-(3-pyridin-3-yl-propanoyl)-4,5,6,7-tetrahydro-thieno[2,3-c]pyridin-2-yl]-3-(2-methoxy-5-methyl-phenyl)-propionamide] | 300 to 2000 nM

From US7763728B2, “Tetrahydropyridothiophenes” (4SC AG, priority 2005, dated 2010)
